Reference: ChEMBL document CHEMBL5728174 (2020)

Key:
[1] = (§1) After a 3-day incubation at 37° C. cell viability was determined by the MTT method as described by Pauwels et al. (J. Virol. Methods 1988, 20, 309-321).To determine the cytotoxicity, cells were seeded at an initial density of 1×10^6 cells/mL in 96 well plates containing Minimum Essential Medium with Earles's salts (MEM-E), L-glutamine, 1 mM sodium pyruvate and 25 mg/L kanamycin, supplemented with 10% fetal bovine serum. Cell cultures were then incubated at 37° C. in a humidified 5% CO2 atmosphere in the absence or presence of serial dilutions of test compounds. Cell viability was determined by the MTT method.; type: cell-based
[2] = as §1; type: cell-based; remark: listed apart in the source

Measured: EC50

CC(C)OC(=O)[C@H](C)N[P@](=O)(OCC1O[C@@H](n2ccc(=O)[nH]c2=O)[C@](C)(F)[C@@H]1O)Oc1ccccc1 (some centres undefined)
> 100 µM: [1] | [1]; 72 h | [2] | [2]; BHK-21, 72 h
